# Values quoted from earlier work in patent EP3958980B1, “TARGETED NOVEL TRIAZOLOTHIADIAZINE DERIVATIVES FOR THE TREATMENT OF LUNG CANCER” (Anadolu Universitesi, priority 2020, dated 2021).
# Key:
# A549 cells = conditions: cited from earlier work
# [1] = test system: kidney cancer (OU-31) cell line; parameters: concentration or dose not given beside the values; conditions: cited from earlier work
# [2] = test system: leukemia (MOLT-4) cell line; conditions: cited from earlier work
# [3] = test system: 60 cell lines formed of leukemia, NSCLC, melanoma, prostate, ovarian and breast cancers; conditions: against all cancer cells; cited from earlier work
# [4] = test system: human colon epithelial (HT-29) cells; conditions: cited from earlier work
# [5] = test system: kidney fibroblast (BHK-21) and lung carcinoma (H-157) cell lines; conditions: highest cytotoxic activity; cell line not stated; cited from earlier work
# [6] = test system: hepatocellular carcinoma (Hep3 B), human breast adenocarcinoma (MCF-7), human cervical carcinoma (HeLa); conditions: against all tested cancer cells; cited from earlier work
# lung cancer (H157) cells = conditions: cited from earlier work
# [7] = test system: kidney fibroblast (BHK-21) cells; conditions: cited from earlier work
compound,measurement,setting,value
"O=C(CSc1nnc2n1N=C(c1ccc(Br)cc1)CS2)c1ccc(Br)cc1 [1-(4-bromophenyl)-2-((6-(4-bromophenyl)-7H-[1,2,4]triazolo[3,4-b][1,3,4]thiadiazine-3-yl)thio)ethanone]",growth,A549 cells,58.58%
same,inhibition,A549 cells,41.42%
same,growth,[1],46.76%
same,inhibition,[1],53.24%
"O=C(CSc1nnc2n1N=C(c1ccc(Cl)cc1)CS2)c1ccc(F)cc1 [2-((6-(4-Chlorophenyl)-7H-[1,2,4]triazolo[3,4-b][1,3,4]thiadiazine-3-yl)thio-1-(4-fluorophenyl)ethanone]",growth,[1],48.14%
same,growth,[2],49.82%
"Fc1cc(-c2nnc3n2N=C(c2ccc(Cl)cc2)CS3)c(Cl)cc1Cl [3-(2,4-Dichloro-5-fluorophenyl)-6-(4-chlorophenyl)-1,2,4-triazolo[3,4-b]-1,3,4-thiadiazine]",GI50,[3],1.06 to 25.4 µM
"CS(=O)(=O)c1ccc(Cc2nnc3n2N=C(c2ccccc2)CS3)cc1 [3-(4-(methylsulfonyl)benzyl)-6-phenyl-7H-[1,2,4]triazolo[3,4-b][1,3,4]thiadiazine]",IC50,[4],25 µM
"O=c1oc2ccccc2cc1-c1nnc2n1N=C(c1ccc(-c3ccccc3)cc1)CS2 [3-(6-(Biphenyl-4-yl)-7H-[1,2,4]triazolo[3,4-b][1,3,4]-thiadiazine-3-yl)-2H-chromene-2-one]",IC50,[5],1.01 ± 0.12 µM
"CCCCC/C=C\CC[C@H](O)CCCCCCCc1nnc2n1N=C(c1ccccc1)CS2 [3-[(8R,11Z)-8-hydroxyheptadec-11-enyl]-6-phenyl-7H-1,2,4-triazolo[3,4-b]-1,3,4-thiadiazine]",IC50,[6],< 8.83 µM
"CCCCCC[C@@H](O)C/C=C\CCCCCCCc1nnc2n1N=C(c1ccccc1)CS2 [3-[(8Z,11R)-11-hydroxyheptadec-8-enyl]-6-phenyl-7H-1,2,4-triazolo[3,4-b]-1,3,4-thiadiazine]",IC50,[6],< 8.83 µM
"Clc1ccc(C2=Nn3c(nnc3-c3cccnc3)SC2)cc1Cl [6-(3,4-Dichlorophenyl)-3-(pyridine-3-yl)-7H-[1,2,4]triazolo[3,4-b][1,3,4]thiadiazine]",IC50,lung cancer (H157) cells,0.96 ± 0.43 µM
"COc1cccc(C2=Nn3c(nnc3-c3ccncc3)SC2)c1 [6-(3-Methoxyphenyl)-3-(pyridine-4-yl)-7H-[1,2,4]triazolo[3,4-b][1,3,4]thiadiazine]",inhibition,[7],73.3%
"CS(=O)(=O)c1ccc(Cc2nnc3n2N=C(c2ccc(-c4ccccc4)cc2)CS3)cc1 [6-(biphenyl-4-yl)-3-(4-(methylsulfonyl)benzyl)-7H-[1,2,4]triazolo[3,4-b][1,3,4]thiadiazine]",IC50,[4],12.5 µM
CC[C@]1(O)C[C@H]2CN(CCc3c([nH]c4ccccc34)[C@@](C(=O)OC)(c3cc4c(cc3OC)N(C=O)[C@H]3[C@@](O)(C(=O)OC)[C@H](OC(C)=O)[C@]5(CC)C=CCN6CC[C@]43[C@@H]65)C2)C1 [vincristine],inhibition,[7],74.5%
same,IC50,lung cancer (H157) cells,1.03 ± 0.04 µM
